In the NIST ThermoML archive (doi:10.1021/je700345b):
Values joined by “and” are separate entries in the source; they are usually repeats but may differ in a detail not shown here. Equal values may be shown once.

Experiment: wn = mass fraction of the nth substance listed
Conditions: Liquid, w2 = 0.5

CC(F)(F)F [1,1,1-trifluoroethane] + FC(F)C(F)(F)F
Conditions | viscosity
253.26 K, 2000 kPa | 0.237 mPa·s
253.26 K, 2010 kPa | 0.2374 mPa·s
253.26 K, 2090 kPa | 0.2377 mPa·s
253.26 K, 2170 kPa | 0.2378 mPa·s
253.26 K, 2180 kPa | 0.2371 mPa·s
253.26 K, 2220 kPa | 0.2379 mPa·s
253.26 K, 3370 kPa | 0.2426 mPa·s
253.26 K, 3380 kPa | 0.2427 mPa·s
253.26 K, 3390 kPa | 0.2427 mPa·s
253.26 K, 3410 kPa | 0.2425 mPa·s
253.26 K, 4930 kPa | 0.2479 mPa·s
253.26 K, 4960 kPa | 0.2479 mPa·s
253.26 K, 4970 kPa | 0.248 mPa·s
253.26 K, 4990 kPa | 0.2482 mPa·s
253.26 K, 5020 kPa | 0.2483 mPa·s
253.26 K, 5070 kPa | 0.2487 mPa·s
253.26 K, 7440 kPa | 0.2574 mPa·s
253.26 K, 7500 kPa | 0.2576 mPa·s
253.26 K, 7620 kPa | 0.258 mPa·s
253.26 K, 7720 kPa | 0.2587 mPa·s
263.23 K, 1990 kPa | 0.2076 mPa·s
263.23 K, 2020 kPa | 0.2074 mPa·s
263.23 K, 2070 kPa | 0.2081 mPa·s
263.23 K, 2120 kPa | 0.2077 mPa·s
263.23 K, 3660 kPa | 0.2139 mPa·s
263.23 K, 3670 kPa | 0.2137 mPa·s and 0.2139 mPa·s
263.23 K, 3680 kPa | 0.2138 mPa·s and 0.2137 mPa·s
263.23 K, 3720 kPa | 0.214 mPa·s
263.23 K, 3780 kPa | 0.214 mPa·s
263.23 K, 4690 kPa | 0.2177 mPa·s
263.23 K, 4990 kPa | 0.2192 mPa·s
263.23 K, 5010 kPa | 0.2195 mPa·s
263.23 K, 7000 kPa | 0.2258 mPa·s
263.23 K, 7050 kPa | 0.2257 mPa·s
263.23 K, 7190 kPa | 0.2262 mPa·s
263.23 K, 7220 kPa | 0.227 mPa·s
273.24 K, 2150 kPa | 0.1827 mPa·s
273.24 K, 2160 kPa | 0.1825 mPa·s
273.24 K, 2190 kPa | 0.1826 mPa·s and 0.1823 mPa·s
273.24 K, 2230 kPa | 0.1829 mPa·s
273.24 K, 2260 kPa | 0.1829 mPa·s
273.24 K, 2270 kPa | 0.1829 mPa·s
273.24 K, 3450 kPa | 0.1878 mPa·s and 0.1876 mPa·s
273.24 K, 3470 kPa | 0.1877 mPa·s
273.24 K, 3480 kPa | 0.1873 mPa·s
273.24 K, 3500 kPa | 0.1878 mPa·s
273.24 K, 5030 kPa | 0.1923 mPa·s
273.24 K, 5040 kPa | 0.1925 mPa·s
273.24 K, 5060 kPa | 0.1925 mPa·s
273.24 K, 7360 kPa | 0.2011 mPa·s
273.24 K, 7450 kPa | 0.2008 mPa·s
273.24 K, 7520 kPa | 0.2015 mPa·s
273.24 K, 9710 kPa | 0.2103 mPa·s
273.24 K, 9880 kPa | 0.2106 mPa·s and 0.2104 mPa·s
283.34 K, 2000 kPa | 0.1592 mPa·s
283.34 K, 2060 kPa | 0.1592 mPa·s
283.34 K, 2120 kPa | 0.1591 mPa·s
283.34 K, 2160 kPa | 0.1591 mPa·s
283.34 K, 2220 kPa | 0.1593 mPa·s
283.34 K, 2230 kPa | 0.1592 mPa·s and 0.1596 mPa·s
283.34 K, 2250 kPa | 0.1596 mPa·s
283.34 K, 2260 kPa | 0.1595 mPa·s
283.34 K, 2270 kPa | 0.1597 mPa·s
283.34 K, 3720 kPa | 0.165 mPa·s
283.34 K, 3770 kPa | 0.1651 mPa·s and 0.1654 mPa·s
283.34 K, 3820 kPa | 0.1654 mPa·s
283.34 K, 3860 kPa | 0.1655 mPa·s
283.34 K, 3880 kPa | 0.1657 mPa·s
283.34 K, 4970 kPa | 0.1693 mPa·s
283.34 K, 5000 kPa | 0.1693 mPa·s
283.34 K, 5030 kPa | 0.1696 mPa·s
283.34 K, 5040 kPa | 0.1695 mPa·s
283.34 K, 7600 kPa | 0.178 mPa·s
283.34 K, 7640 kPa | 0.1783 mPa·s
283.34 K, 7680 kPa | 0.1784 mPa·s
283.34 K, 9750 kPa | 0.1851 mPa·s
283.34 K, 9860 kPa | 0.1854 mPa·s
283.34 K, 9900 kPa | 0.1857 mPa·s
283.34 K, 9920 kPa | 0.1857 mPa·s
283.34 K, 9930 kPa | 0.1856 mPa·s
293.33 K, 1920 kPa | 0.1394 mPa·s
293.33 K, 1940 kPa | 0.1392 mPa·s
293.33 K, 1970 kPa | 0.1396 mPa·s
293.33 K, 2020 kPa | 0.1394 mPa·s
293.33 K, 3570 kPa | 0.145 mPa·s
293.33 K, 3690 kPa | 0.1454 mPa·s
293.33 K, 3720 kPa | 0.1455 mPa·s
293.33 K, 3750 kPa | 0.1457 mPa·s
293.33 K, 4910 kPa | 0.1503 mPa·s and 0.15 mPa·s
293.33 K, 5000 kPa | 0.1506 mPa·s
293.33 K, 5030 kPa | 0.1506 mPa·s
293.33 K, 7510 kPa | 0.1585 mPa·s
293.33 K, 7540 kPa | 0.1584 mPa·s
293.33 K, 7560 kPa | 0.1584 mPa·s
293.33 K, 9770 kPa | 0.1667 mPa·s
293.33 K, 9810 kPa | 0.1669 mPa·s
293.33 K, 9850 kPa | 0.1666 mPa·s
293.33 K, 9880 kPa | 0.1669 mPa·s
293.33 K, 9930 kPa | 0.1672 mPa·s
